Laboratory results from patent US20250339569A1, “CARBONIC ANHYDRASE IX LIGANDS” (priority 2021, published 2025).
Where two headings read alike, the source gives them in different places.

Columns and labels:
[1] = Pharmacokinetic characterization in healthy mice; format: in vivo, CD-1 mice; conditions: male, CD-1, plasma, iv, mouse; for clearance: read-out: Clearance (CL); for half-life: read-out: terminal elimination half-life (converted); for Vd: read-out: volume of distribution (Vd)
Protocol: The pharmacokinetics of DPI-4452 after a single intravenous (i.v.) dose were investigated in healthy mice. […] Plasma and urine samples collected after dosing were analyzed using a LC-HRMS (liquid chromatography coupled with high-resolution mass spectrometry) assay method. Concentration values were used for pharmacokinetic calculations.
Male CD-1 mice (3 animals per time point and per dose level; overall, 28.2-37.6 g body weight) were administered intravenously in the tail vein in a 2 mL/kg dosing volume. Blood samples were collected in K2EDTA tubes at 5 min, 15 min, 30 min, 1 h, 2 h, 4 h, 8 h, and urine was collected over 8 hours post dose. The blood samples were kept on wet ice until plasma separation by centrifugation at room temperature; 10 min; 2500 G, which was performed within 60 min after sampling. The plasma samples were transferred into plastic tubes, frozen and stored at −80° C. until analysis.
Plasma and urine samples were analyzed by LC-HRMS after solid phase extraction, using a stable isotope-labeled internal standard (^13C6, ^15N-DPI-4452). Chromatographic separation was run on a Waters Acquity HSS T3 C18 2.1×50 mm, 1.8 μm column. Detection was achieved on a Sciex API6600 TOF mass spectrometer. The lower limit of quantification was 1.00 ng/mL in plasma and urine.
The non-compartmental (NCA) pharmacokinetic analysis of plasma concentration data was conducted using Phoenix 64 WinNonlin (Build 8.3.3.33) software. Nominal doses were used for all animals. The terminal phase half-life (T1/2) was calculated by least-squares regression analysis of the terminal linear part of the log concentration-time curve. The area under the plasma concentration-time curve (AUC) was determined with the linear trapezoidal rule for increasing values and log trapezoidal rule for decreasing values up to the last measurable concentration.

SK-RC-52 tumor = assay: Biodistribution study (SPECT/CT) in SK-RC-52 tumor-bearing mice with or without gelofusine; format: in vivo, NMRI nude mice; conditions: SK-RC-52, In-111-labeled; for % remaining tumor uptake at 24 h p.i.: Mean ± SEM
[2] = Allometry and prediction of human exposure and PK parameters; conditions: allometry from mouse and dog PK
Protocol: From the variety of CL, Vd and T1/2 determined in the animal studies, the highest and lowest values for each species were retained, and allometry was conducted on all the combinations to obtain a range for each predicted human PK parameter.
The missing input parameters were dealt with as follows. Regarding blood:plasma concentration ratio, the frequent default values of 1.0 and 0.8 were considered and found to make no difference to the outputs, so it was left at 1.0. Plasma protein binding: a free fraction fup of 1 was considered in order to estimate the highest C5 min values.

Question: What does the source list for `CC(C)C[C@@H]1NC(=O)[C@H](Cc2cccc(NC(=O)CCCS(N)(=O)=O)c2)NC(=O)[C@H](CC(=O)O)NC(=O)[C@H]2CCCN2C(=O)[C@H](CCC(=O)O)NC(=O)[C@@H](NC(=O)[C@H](CCC(N)=O)NC(=O)CN2CCN(C(=O)CN3CCN(CC(=O)O)CCN(CC(=O)O)CCN(CC(=O)O)CC3)CC2)CSCc2cccc(c2)CSC[C@@H](C(N)=O)NC(=O)[C@H](CO)NC(=O)[C@H](Cc2c[nH]c3ccccc23)NC(=O)[C@H]([C@@H](C)O)NC1=O` [DPI-4452, DOTA-PPAc-Gln-[Cys(3MeBn)-Glu-pro-Asp-Af3(Cpsu)-Leu-Thr-Trp-Ser-Cys]-NH2]?
Answer: AUC(0-inf) ([1]; i.v. 0.7 mg/kg): 0.424 µg·h/mL; clearance ([1]; i.v. 0.7 mg/kg): 1.65 L/h/kg; half-life ([1]; i.v. 0.7 mg/kg): 16.8 min; Vd ([1]; i.v. 0.7 mg/kg): 0.408 L/kg; AUC(0-inf) ([1]; i.v. 5.5 mg/kg): 2.82 µg·h/mL; clearance ([1]; i.v. 5.5 mg/kg): 1.95 L/h/kg; half-life ([1]; i.v. 5.5 mg/kg): 27.9 min; Vd ([1]; i.v. 5.5 mg/kg): 0.455 L/kg; Time to peak uptake in tumor (SK-RC-52 tumor; 4% gelofusine before): 4 h; % remaining tumor uptake at 24 h p.i. (SK-RC-52 tumor; 4% gelofusine before): 69.6 ± 6.6%; Time to peak uptake in tumor (SK-RC-52 tumor; no gelofusine): 1 h; % remaining tumor uptake at 24 h p.i. (SK-RC-52 tumor; no gelofusine): 73.3 ± 0.8%; predicted human clearance (CL) [2]: 0.214 to 0.78 L/h/kg; predicted human terminal half-life (T1/2) [2]: 10.2 to 88.2 min; predicted human volume of distribution (Vd) [2]: 0.189 to 0.455 L/kg
